US5770573A, “CS-1 peptidomimetics, compositions and methods of using the same” (Cytel Corporation, priority 1995, dated 1998)
Square brackets hold non-standard residues; d marks the D form. Peptide text beside a SMILES is read from it. * marks the point of attachment. ξ: configuration not given here. Phe(4-NO2) = N[C@@H](Cc1ccc([N+](=O)[O-])cc1)C(=O)O; Quinoline3carbonyl = O=C(c1cnc2ccccc2c1)*; Pyrazinecarbonyl = O=C(c1cnccn1)*; Quinaldoyl = O=C(c1ccc2ccccc2n1)*; Brosyl = O=S(=O)(c1ccc(Br)cc1)*; Cha = N[C@@H](CC1CCCCC1)C(=O)O; X15 = O=S(=O)(c1cccc2cccnc12)*; ξAtc = NC1(C(=O)O)CCc2ccccc2C1; NMeL = CN[C@@H](CC(C)C)C(=O)O; Phg = N[C@H](C(=O)O)c1ccccc1; NMeV = CN[C@H](C(=O)O)C(C)C; X19 = O=C(Cc1ccc(Br)cc1)*; Nle = CCCC[C@H](N)C(=O)O; Nva = CCC[C@H](N)C(=O)O; PhAc = O=C(Cc1ccccc1)*; X18 = O=C(c1cn[nH]c1)*

target: VLA-4 (Homo sapiens, UniProt P05556+P13612); test: In vitro binding inhibition of 51Cr-labeled Jurkat cells to solid phase-bound CS-1 compound (SEQ ID NO:1); assay type: cell-based; parameters: inflammatory cells that contain the VLA-4 receptor [Jurkat cells; host or cells: Jurkat (human T lymphoblastic line); conditions: not given
Sequence (P13612 34-1032): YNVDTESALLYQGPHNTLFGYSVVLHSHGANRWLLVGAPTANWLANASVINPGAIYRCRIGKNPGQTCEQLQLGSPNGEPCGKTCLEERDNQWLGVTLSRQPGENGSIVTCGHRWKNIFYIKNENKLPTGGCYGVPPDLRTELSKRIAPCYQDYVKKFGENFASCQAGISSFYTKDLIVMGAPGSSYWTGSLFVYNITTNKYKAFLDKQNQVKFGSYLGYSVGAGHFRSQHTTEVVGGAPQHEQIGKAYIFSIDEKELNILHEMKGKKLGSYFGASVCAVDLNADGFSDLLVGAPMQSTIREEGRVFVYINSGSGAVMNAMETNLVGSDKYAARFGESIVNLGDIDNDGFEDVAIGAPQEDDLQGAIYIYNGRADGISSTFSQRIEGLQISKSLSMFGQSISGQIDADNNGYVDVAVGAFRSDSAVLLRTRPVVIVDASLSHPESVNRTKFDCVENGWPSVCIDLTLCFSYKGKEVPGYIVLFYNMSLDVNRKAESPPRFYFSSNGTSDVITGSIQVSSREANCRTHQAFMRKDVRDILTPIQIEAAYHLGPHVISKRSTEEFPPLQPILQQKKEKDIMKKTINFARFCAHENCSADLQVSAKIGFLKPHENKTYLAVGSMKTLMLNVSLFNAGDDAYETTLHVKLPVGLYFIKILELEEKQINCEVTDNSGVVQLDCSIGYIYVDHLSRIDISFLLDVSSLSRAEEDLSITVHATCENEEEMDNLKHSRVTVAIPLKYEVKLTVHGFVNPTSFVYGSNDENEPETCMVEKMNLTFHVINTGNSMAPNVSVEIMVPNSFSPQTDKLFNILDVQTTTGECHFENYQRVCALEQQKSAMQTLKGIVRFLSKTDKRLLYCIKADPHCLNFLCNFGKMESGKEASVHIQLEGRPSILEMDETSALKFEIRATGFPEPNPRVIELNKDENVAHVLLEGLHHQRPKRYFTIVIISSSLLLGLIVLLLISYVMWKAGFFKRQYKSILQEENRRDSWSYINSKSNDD
Sequence (P05556 21-798): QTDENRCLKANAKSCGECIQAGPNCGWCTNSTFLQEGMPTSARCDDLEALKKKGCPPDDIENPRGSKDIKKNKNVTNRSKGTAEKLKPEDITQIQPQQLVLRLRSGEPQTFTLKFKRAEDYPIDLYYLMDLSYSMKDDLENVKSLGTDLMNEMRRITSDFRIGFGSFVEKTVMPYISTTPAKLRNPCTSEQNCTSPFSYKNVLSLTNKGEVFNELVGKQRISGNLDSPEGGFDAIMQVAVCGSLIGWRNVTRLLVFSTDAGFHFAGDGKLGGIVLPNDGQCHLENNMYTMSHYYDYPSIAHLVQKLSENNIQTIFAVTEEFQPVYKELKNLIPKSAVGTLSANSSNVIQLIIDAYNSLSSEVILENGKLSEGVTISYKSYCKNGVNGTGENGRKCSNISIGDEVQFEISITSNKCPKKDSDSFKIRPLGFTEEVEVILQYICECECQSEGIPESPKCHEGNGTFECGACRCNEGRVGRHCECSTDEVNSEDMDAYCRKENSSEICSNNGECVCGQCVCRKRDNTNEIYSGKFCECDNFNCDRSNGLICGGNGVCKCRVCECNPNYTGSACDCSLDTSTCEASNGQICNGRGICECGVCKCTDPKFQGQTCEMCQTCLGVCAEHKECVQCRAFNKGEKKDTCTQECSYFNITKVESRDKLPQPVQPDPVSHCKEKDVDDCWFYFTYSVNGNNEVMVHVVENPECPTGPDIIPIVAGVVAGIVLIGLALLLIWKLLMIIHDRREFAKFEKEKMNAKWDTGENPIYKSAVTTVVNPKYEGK
Experimental: Binding inhibition is measured here as a concentration of compound that inhibits one-half the binding between a standard number of Jurkat cells and a standard amount of CS-1 compound bound to the surface of a microtiter plate well. Those concentrations are conveniently expressed as IC50 values, smaller numbers indicating a lower concentration required to inhibit 50 percent binding and therefore greater potency. Further specifics of this assay are provided hereinafter.
Jurkat cells (ATCC TIB 152), a human T lymphoblastic line, labeled with ^51 chromium were used to assay in vitro binding inhibition provided by various compounds discussed herein.
The plates were prepared as follows: The 25-mer CS-1 compound (SEQ ID NO:1) dissolved at 0.5-1 μg/ml in a buffer of 0.1M NaHCO3 at pH 9.5 that also contained 10 μg/ml of bovine serum albumin (BSA) or a conjugate of the CS-1 compound linked to […] (CS-1-OVA) dissolved at 1-2.5 μg/ml in the same buffer was used as the substrate. Each well of the microtiter plates was coated with 50 μl of substrate or buffer alone for controls. The wells were permitted to dry out completely and were then rinsed twice with PBS at pH 7.4. Non-specific binding sites of each well were then blocked using 200 μl per well of RPMI/1 percent BSA for two hours at room temperature.
Jurkat cells (3-5×10^6 cells) were placed into a 15 ml Falcon™ round-bottom tube with a cap. The tube was centrifuged, and the extra medium was then removed.
Two hundred microliters of a ^51 Cr labeling solution were added to the centrifuged cells and maintained in contact with the cells for 90-120 minutes in a warm room. […] Longer contact times provide a greater amount of labeling but lower cell viability.
The labeled cells are washed with (i) complete medium, (ii) 1 mM EDTA/PBS and then (iii) RPM1/1 percent BSA free of serum components. The cells are centrifuged after each washing. The cells are finally resuspended in serum-free RPMI/1 percent BSA at a concentration of 1×10^6 viable cells/ml, which provides a concentration that is diluted by one-half in the assay.
Inhibitor compounds are prepared as stock solutions at 20 mg/ml in DMSO in 1.5 ml cryogenic screwcap vials, and were stored at -70° C. Using Flow™ round-bottom or V-bottom microtiter plates, the inhibitor compounds were prepared at twice the assay concentration in RPMI/1 percent BSA at 60 μl/well.
Four initial dilutions were typically used.
The ^51 Cr-labeled cells ([…] at 60 μl/well) were then admixed with the diluted compound solutions. The admixtures were maintained at room temperature (about 22° C.) for 30 minutes.
One hundred microliters of each inhibitor compound/cell admixture were transferred to the substrate-coated wells. This was done in triplicate for each dilution. The resulting plates were incubated for 30 minutes at 37° C. and then washed gently three times with RPMI/1 percent BSA at 200 μl/well. Binding was observed microscopically, particularly after the second wash.
The bound cells were then lysed by the addition of a 0.5 percent solution of sodium dodecylsulfate in water at 100 μl/well. The resulting solutions were then processed for counting and calculation of IC50 values following usual procedures.
The data of Table 1 are normalized to the binding of SEQ ID NO: 3. […] Multiple assays for the same compound were averaged.

Row | Structure (SMILES) | Relative Potency
1 | CC(C)C[C@@H](C(=O)N[C@@H](CC(=O)O)C(=O)N[C@@H](Cc1ccccc1)C(=O)N1CCC[C@@H]1C(N)=O)n1c(=O)[nH]c2ccccc2c1=O [896.63] | 43.7
2 | CC(C)C[C@H](NC(=O)C(C)(C)C)C(=O)N[C@@H](CC(=O)O)C(=O)N[C@H](C(=O)N1CCC[C@H]1C(N)=O)C(C)C [926.01] | 3.29
3 | CC[C@@H](C)[C@@H](N)C(=O)N[C@@H](CC(C)C)C(=O)N[C@@H](CC(=O)O)C(=O)N[C@H](C(=O)N1CCC[C@@H]1C(N)=O)C(C)C [926.03] | 1.83
4 | CC(C)C[C@H](NC(=O)[C@@H](N)Cc1ccccc1)C(=O)N[C@@H](CC(=O)O)C(=O)N[C@H](C(=O)N1CCC[C@@H]1C(N)=O)C(C)C [926.04] (H-FLDV[dP]-NH2) | 1.88
5 | CC(C)C[C@H](NC(=O)[C@H](N)Cc1ccccc1)C(=O)N[C@@H](CC(=O)O)C(=O)N[C@H](C(=O)N1CCC[C@@H]1C(N)=O)C(C)C [926.05] (H-[dF]LDV[dP]-NH2) | .94
6 | CC[C@H](C)[C@H](N)C(=O)N[C@@H](Cc1ccccc1)C(=O)N[C@@H](CC(=O)O)C(=O)N[C@H](C(=O)N1CCC[C@H]1C(N)=O)C(C)C [926.07] (H-IFDVP-NH2) | .08
7 | CC[C@H](C)[C@H](N)C(=O)N[C@@H](CC1CCCCC1)C(=O)N[C@@H](CC(=O)O)C(=O)N[C@H](C(=O)N1CCC[C@H]1C(N)=O)C(C)C [926.08] (H-I[Cha]DVP-NH2) | .47
8 | CCCC[C@H](NC(=O)[C@@H](N)[C@@H](C)CC)C(=O)N[C@@H](CC(=O)O)C(=O)N[C@H](C(=O)N1CCC[C@H]1C(N)=O)C(C)C [926.09] (H-I[Nle]DVP-NH2) | .41
9 | CCC[C@H](NC(=O)[C@@H](N)[C@@H](C)CC)C(=O)N[C@@H](CC(=O)O)C(=O)N[C@H](C(=O)N1CCC[C@H]1C(N)=O)C(C)C [926.10] (H-I[Nva]DVP-NH2) | .13
10 | CC[C@H](C)[C@H](N)C(=O)N(C)[C@@H](CC(C)C)C(=O)N[C@@H](CC(=O)O)C(=O)N[C@H](C(=O)N1CCC[C@H]1C(N)=O)C(C)C [926.11] (H-I[NMeL]DVP-NH2) | .06
11 | CC[C@H](C)[C@H](N)C(=O)N[C@@H](CC(C)C)C(=O)N[C@@H](CC(=O)O)C(=O)N[C@@H](Cc1ccccc1)C(=O)N1CCC[C@H]1C(N)=O [926.12] (H-ILDFP-NH2) | 1.99
12 | CC[C@H](C)[C@H](N)C(=O)N[C@@H](CC(C)C)C(=O)N[C@@H](CC(=O)O)C(=O)N[C@@H](CCSC)C(=O)N1CCC[C@H]1C(N)=O [926.13] (H-ILDMP-NH2) | .3
13 | CC[C@H](C)[C@H](N)C(=O)N[C@@H](CC(C)C)C(=O)N[C@@H](CC(=O)O)C(=O)N[C@@H](CC1CCCCC1)C(=O)N1CCC[C@H]1C(N)=O [926.14] (H-ILD[Cha]P-NH2) | .13
14 | CCCC[C@H](NC(=O)[C@H](CC(=O)O)NC(=O)[C@H](CC(C)C)NC(=O)[C@@H](N)[C@@H](C)CC)C(=O)N1CCC[C@H]1C(N)=O [926.15] (H-ILD[Nle]P-NH2) | .08
15 | CCC[C@H](NC(=O)[C@H](CC(=O)O)NC(=O)[C@H](CC(C)C)NC(=O)[C@@H](N)[C@@H](C)CC)C(=O)N1CCC[C@H]1C(N)=O [926.16] (H-ILD[Nva]P-NH2) | .34
16 | CC[C@H](C)[C@H](N)C(=O)N[C@@H](CC(C)C)C(=O)N[C@@H](CC(=O)O)C(=O)N[C@H](C(=O)N1CCC[C@H]1C(N)=O)[C@@H](C)CC [926.17] (H-ILDIP-NH2) | .21
17 | CC[C@H](C)[C@H](N)C(=O)N[C@@H](CC(C)C)C(=O)N[C@@H](CC(=O)O)C(=O)N(C)[C@H](C(=O)N1CCC[C@H]1C(N)=O)C(C)C [926.18] (H-ILD[NMeV]P-NH2) | 0
18 | CC(C)C[C@H](N)C(=O)N[C@@H](CC(=O)O)C(=O)N[C@H](C(N)=O)C(C)C [926.29] (H-Leu-Asp-Val-NH2) | 0.01
19 | CC(C)C[C@H](N)C(=O)N[C@@H](CC(=O)O)C(=O)N[C@@H](Cc1ccccc1)C(N)=O [926.31] (H-Leu-Asp-Phe-NH2) | 0.01
20 | CC(=O)N[C@@H](CC(C)C)C(=O)N[C@@H](CC(=O)O)C(=O)N[C@@H](Cc1ccccc1)C(N)=O [926.32] (Ac-Leu-Asp-Phe-NH2) | .47
21 | CC(C)C[C@H](NC(=O)c1cnccn1)C(=O)N[C@@H](CC(=O)O)C(=O)N[C@@H](Cc1ccccc1)C(=O)N1CCC[C@@H]1C(N)=O [951.02] (Pyrazinecarbonyl-LDF[dP]-NH2) | 19.4
22 | CC(C)C[C@H](NC(=O)c1cn[nH]c1)C(=O)N[C@@H](CC(=O)O)C(=O)N[C@@H](Cc1ccccc1)C(=O)N1CCC[C@@H]1C(N)=O [951.03] (X18-LDF[dP]-NH2) | 28.2
23 | CC(C)C[C@H](NC(=O)c1cnc2ccccc2c1)C(=O)N[C@@H](CC(=O)O)C(=O)N[C@@H](Cc1ccccc1)C(=O)N1CCC[C@@H]1C(N)=O [951.05] (Quinoline3carbonyl-LDF[dP]-NH2) | 56.3
24 | CC(C)C[C@H](NC(=O)c1ccc2ccccc2n1)C(=O)N[C@@H](CC(=O)O)C(=O)N[C@@H](Cc1ccccc1)C(=O)N1CCC[C@@H]1C(N)=O [951.06] (Quinaldoyl-LDF[dP]-NH2) | 8.97
25 | CC(C)C[C@H](NS(=O)(=O)c1cccc2cccnc12)C(=O)N[C@@H](CC(=O)O)C(=O)N[C@@H](Cc1ccccc1)C(=O)N1CCC[C@@H]1C(N)=O [951.07] (X15-LDF[dP]-NH2) | 1.57
26 | CC(C)C[C@H](NC(=O)Cc1ccc(Br)cc1)C(=O)N[C@@H](CC(=O)O)C(=O)N[C@@H](Cc1ccccc1)C(=O)N1CCC[C@@H]1C(N)=O [951.08] (X19-LDF[dP]-NH2) | 6.26
27 | CC(C)C[C@H](NS(=O)(=O)c1ccc(Br)cc1)C(=O)N[C@@H](CC(=O)O)C(=O)N[C@@H](Cc1ccccc1)C(=O)N1CCC[C@@H]1C(N)=O [951.10] (Brosyl-LDF[dP]-NH2) | .63
28 | CC(C)C[C@H](NC(=O)[C@H]1CCCN1)C(=O)N[C@@H](CC(=O)O)C(=O)N[C@@H](Cc1ccccc1)C(=O)N1CCC[C@@H]1C(N)=O [951.11] (H-[dP]LDF[dP]-NH2) | 2.5

same assay, conditions: binding inhibition potency relative to standard compound of SEQ ID NO:3 = 1 (normalized IC50); about one-tenth or less assigned zero

Row | Structure (SMILES) | Relative Potency
29 | CC(C)C[C@H](NC(=O)Cc1ccccc1)C(=O)N[C@@H](CC(=O)O)C(=O)NC1(C(=O)N2CCC[C@@H]2C(N)=O)CCc2ccccc2C1 (stereo partly shown) [896.65] (PhAc-LD[ξAtc][dP]-NH2) | 1.25
30 | CC(C)C[C@H](NC(=O)Cc1ccccc1)C(=O)N[C@@H](CC(=O)O)C(=O)N[C@@H](Cc1ccc([N+](=O)[O-])cc1)C(=O)N1CCC[C@@H]1C(N)=O [896.68] (PhAc-LD[Phe(4-NO2)][dP]-NH2) | 39.9
31 | CC(C)C[C@H](NC(=O)Cc1ccccc1)C(=O)N[C@@H](CC(=O)O)C(=O)N[C@H](C(=O)N1CCC[C@@H]1C(N)=O)c1ccccc1 [896.69] (PhAc-LD[Phg][dP]-NH2) | 61
32 | CC(C)C[C@H](NC(=O)Cc1ccccc1)C(=O)N[C@@H](CC(=O)O)C(=O)N[C@@H](CO)C(=O)N1CCC[C@@H]1C(N)=O [896.72] (PhAc-LDS[dP]-NH2) | 16.9
33 | CC(C)C[C@H](NC(=O)c1ccccc1)C(=O)N[C@@H](CC(=O)O)C(=O)N[C@H](C(=O)N1CCC[C@@H]1C(N)=O)C(C)C [926.02] | 9.6
34 | CC(=O)N[C@@H](CC(C)C)C(=O)N[C@@H](CC(=O)O)C(=O)N[C@H](C(N)=O)C(C)C [926.30] (Ac-Leu-Asp-Val-NH2) | .63
